Values quoted from earlier work in paper PMC9851200, “Multiparameter phenotypic screening for endogenous TFEB and TFE3 translocation identifies novel chemical series modulating lysosome function” (Autophagy, 2022).

Tests used:
Set-up in all cases: method as in original PKIS2 published data
[1] = target: kinases (KINOMEscan panel) (Homo sapiens, UniProt P09769); conditions: FGR; Published KINOMEscan; ref original PKIS2 published data; cited from earlier work
[2] = target: kinases (KINOMEscan panel) (Homo sapiens, UniProt P78362); conditions: SRPK2; Published KINOMEscan; ref original PKIS2 published data; cited from earlier work
[3] = target: kinases (KINOMEscan panel) (Homo sapiens, UniProt P21802); conditions: kinase FGFR2; Published KINOMEscan; ref original PKIS2 published data; cited from earlier work
[4] = target: T1, kinases (KINOMEscan panel) (Homo sapiens, UniProt Q9UHD2); conditions: TBK1; Published KINOMEscan; ref original PKIS2 published data; cited from earlier work
T1 sequence (Q9UHD2 1-729): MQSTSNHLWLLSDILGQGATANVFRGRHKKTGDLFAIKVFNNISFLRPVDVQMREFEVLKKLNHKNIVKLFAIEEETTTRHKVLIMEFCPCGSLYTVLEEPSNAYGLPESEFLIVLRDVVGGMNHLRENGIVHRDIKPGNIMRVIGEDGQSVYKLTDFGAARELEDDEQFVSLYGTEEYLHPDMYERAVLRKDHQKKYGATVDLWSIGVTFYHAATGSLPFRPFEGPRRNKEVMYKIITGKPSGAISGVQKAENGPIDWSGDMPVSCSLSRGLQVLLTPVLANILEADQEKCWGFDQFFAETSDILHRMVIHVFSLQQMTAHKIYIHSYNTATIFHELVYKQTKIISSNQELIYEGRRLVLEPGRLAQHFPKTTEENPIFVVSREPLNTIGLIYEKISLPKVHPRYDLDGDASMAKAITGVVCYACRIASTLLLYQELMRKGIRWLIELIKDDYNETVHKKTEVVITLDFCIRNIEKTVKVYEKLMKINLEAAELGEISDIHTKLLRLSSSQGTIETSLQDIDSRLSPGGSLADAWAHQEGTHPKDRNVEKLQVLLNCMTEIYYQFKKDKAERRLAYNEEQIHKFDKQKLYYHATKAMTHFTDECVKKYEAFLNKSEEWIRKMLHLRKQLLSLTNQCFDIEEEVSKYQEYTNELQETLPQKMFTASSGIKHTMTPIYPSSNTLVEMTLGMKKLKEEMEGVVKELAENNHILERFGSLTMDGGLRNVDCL

[5] = target: T2, kinases (KINOMEscan panel) (Homo sapiens, UniProt P25098); conditions: Published KINOMEscan; ref original PKIS2 published data; cited from earlier work
T2 sequence (P25098 1-689): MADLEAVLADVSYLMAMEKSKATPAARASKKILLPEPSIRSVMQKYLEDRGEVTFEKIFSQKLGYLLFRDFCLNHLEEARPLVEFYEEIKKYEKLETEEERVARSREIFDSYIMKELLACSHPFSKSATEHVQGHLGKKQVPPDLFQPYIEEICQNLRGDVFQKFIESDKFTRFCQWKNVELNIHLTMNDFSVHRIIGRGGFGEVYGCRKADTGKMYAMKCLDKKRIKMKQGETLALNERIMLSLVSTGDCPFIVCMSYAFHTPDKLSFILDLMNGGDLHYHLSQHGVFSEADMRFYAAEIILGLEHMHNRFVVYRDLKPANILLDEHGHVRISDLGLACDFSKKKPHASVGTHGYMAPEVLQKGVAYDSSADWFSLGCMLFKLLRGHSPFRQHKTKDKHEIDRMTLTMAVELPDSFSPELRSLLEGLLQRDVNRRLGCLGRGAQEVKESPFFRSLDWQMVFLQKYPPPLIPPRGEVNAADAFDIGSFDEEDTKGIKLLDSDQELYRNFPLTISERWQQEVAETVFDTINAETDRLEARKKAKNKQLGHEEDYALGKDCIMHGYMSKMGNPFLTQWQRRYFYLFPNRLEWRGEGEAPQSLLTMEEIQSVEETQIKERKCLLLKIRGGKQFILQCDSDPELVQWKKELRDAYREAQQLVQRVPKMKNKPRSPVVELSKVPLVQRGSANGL

[6] = target: kinases (KINOMEscan panel) (Homo sapiens, UniProt P19784); conditions: CSNK2A2; Published KINOMEscan; ref original PKIS2 published data; cited from earlier work
[7] = target: kinases (KINOMEscan panel) (Homo sapiens, UniProt P07949); conditions: kinase RET; Published KINOMEscan; ref original PKIS2 published data; cited from earlier work
[8] = target: T3, kinases (KINOMEscan panel) (Homo sapiens, UniProt Q8IW41); conditions: MAPKAPK5; Published KINOMEscan; ref original PKIS2 published data; cited from earlier work
T3 sequence (Q8IW41 1-473): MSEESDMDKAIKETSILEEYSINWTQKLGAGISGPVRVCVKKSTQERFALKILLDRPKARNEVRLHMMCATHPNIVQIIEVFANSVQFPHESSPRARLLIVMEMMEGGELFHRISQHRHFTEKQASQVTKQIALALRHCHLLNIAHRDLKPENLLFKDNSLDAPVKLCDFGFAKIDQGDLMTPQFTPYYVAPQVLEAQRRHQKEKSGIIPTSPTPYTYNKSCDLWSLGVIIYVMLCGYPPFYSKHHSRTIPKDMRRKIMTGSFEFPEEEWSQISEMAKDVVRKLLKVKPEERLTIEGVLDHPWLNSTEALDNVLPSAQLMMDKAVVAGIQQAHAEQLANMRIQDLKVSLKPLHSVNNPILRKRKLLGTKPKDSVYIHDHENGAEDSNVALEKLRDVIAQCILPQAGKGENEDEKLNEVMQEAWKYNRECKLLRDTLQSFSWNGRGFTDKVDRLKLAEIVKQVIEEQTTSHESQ

[9] = target: kinases (KINOMEscan panel) (Homo sapiens, UniProt Q96RR4); conditions: CAMKK2; Published KINOMEscan; ref original PKIS2 published data; cited from earlier work
[10] = target: kinases (KINOMEscan panel) (Homo sapiens, UniProt Q9BYP7); conditions: Published KINOMEscan; ref original PKIS2 published data; cited from earlier work
[11] = target: kinases (KINOMEscan panel) (Homo sapiens, UniProt P80192); conditions: Published KINOMEscan; ref original PKIS2 published data; cited from earlier work

kinases (KINOMEscan panel) (Homo sapiens, UniProt P21802), sequence (P21802 22-821): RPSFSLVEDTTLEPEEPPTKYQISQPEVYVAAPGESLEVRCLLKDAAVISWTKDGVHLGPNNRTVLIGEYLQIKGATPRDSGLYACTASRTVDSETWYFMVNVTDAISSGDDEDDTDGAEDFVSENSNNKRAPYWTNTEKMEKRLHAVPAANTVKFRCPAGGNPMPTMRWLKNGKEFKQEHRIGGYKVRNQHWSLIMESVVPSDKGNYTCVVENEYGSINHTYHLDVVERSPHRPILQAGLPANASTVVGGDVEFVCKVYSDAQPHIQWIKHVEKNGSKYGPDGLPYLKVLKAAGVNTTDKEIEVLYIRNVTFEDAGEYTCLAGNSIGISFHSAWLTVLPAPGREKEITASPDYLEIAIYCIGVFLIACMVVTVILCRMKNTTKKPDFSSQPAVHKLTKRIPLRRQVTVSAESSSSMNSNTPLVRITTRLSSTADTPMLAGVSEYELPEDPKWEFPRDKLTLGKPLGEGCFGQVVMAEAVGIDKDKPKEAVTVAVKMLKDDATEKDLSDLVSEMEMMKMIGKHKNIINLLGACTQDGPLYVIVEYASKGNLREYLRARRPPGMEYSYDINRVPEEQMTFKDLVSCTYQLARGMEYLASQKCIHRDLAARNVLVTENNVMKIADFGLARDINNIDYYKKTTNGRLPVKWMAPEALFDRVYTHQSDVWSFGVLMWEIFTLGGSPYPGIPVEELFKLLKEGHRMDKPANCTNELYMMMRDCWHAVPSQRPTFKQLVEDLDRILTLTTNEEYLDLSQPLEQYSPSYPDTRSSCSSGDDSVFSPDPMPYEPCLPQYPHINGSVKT
kinases (KINOMEscan panel) (Homo sapiens, UniProt Q96RR4), sequence (Q96RR4 whole entry): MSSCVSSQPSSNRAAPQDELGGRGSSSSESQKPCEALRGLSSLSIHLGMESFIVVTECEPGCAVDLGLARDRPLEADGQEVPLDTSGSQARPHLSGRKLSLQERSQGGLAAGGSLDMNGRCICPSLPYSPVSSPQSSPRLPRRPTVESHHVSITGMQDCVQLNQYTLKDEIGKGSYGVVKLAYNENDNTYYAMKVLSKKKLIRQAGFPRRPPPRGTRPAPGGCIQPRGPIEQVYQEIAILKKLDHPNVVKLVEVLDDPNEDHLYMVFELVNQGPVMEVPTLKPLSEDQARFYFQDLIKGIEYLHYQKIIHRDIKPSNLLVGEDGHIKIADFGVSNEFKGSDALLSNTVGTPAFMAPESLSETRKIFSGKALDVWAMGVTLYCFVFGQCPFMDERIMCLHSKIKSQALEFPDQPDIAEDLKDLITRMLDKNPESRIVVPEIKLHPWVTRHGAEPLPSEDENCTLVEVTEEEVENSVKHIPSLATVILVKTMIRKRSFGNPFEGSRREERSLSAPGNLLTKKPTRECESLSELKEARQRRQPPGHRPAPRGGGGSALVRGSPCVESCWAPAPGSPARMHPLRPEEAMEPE
kinases (KINOMEscan panel) (Homo sapiens, UniProt P09769), sequence (P09769 whole entry): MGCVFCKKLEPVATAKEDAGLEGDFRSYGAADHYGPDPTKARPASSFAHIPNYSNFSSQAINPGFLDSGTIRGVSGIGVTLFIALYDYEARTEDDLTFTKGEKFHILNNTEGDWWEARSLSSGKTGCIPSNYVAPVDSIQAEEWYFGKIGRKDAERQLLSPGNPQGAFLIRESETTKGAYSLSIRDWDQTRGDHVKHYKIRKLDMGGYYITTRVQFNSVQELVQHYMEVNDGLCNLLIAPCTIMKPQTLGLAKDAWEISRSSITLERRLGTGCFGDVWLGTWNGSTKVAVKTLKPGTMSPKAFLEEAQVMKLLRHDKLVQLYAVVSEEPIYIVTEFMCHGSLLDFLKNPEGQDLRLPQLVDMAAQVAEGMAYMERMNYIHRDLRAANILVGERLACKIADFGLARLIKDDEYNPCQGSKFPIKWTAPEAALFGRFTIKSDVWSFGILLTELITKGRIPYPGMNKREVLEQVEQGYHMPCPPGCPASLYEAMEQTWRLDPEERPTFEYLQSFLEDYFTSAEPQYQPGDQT
kinases (KINOMEscan panel) (Homo sapiens, UniProt P78362), sequence (P78362 whole entry): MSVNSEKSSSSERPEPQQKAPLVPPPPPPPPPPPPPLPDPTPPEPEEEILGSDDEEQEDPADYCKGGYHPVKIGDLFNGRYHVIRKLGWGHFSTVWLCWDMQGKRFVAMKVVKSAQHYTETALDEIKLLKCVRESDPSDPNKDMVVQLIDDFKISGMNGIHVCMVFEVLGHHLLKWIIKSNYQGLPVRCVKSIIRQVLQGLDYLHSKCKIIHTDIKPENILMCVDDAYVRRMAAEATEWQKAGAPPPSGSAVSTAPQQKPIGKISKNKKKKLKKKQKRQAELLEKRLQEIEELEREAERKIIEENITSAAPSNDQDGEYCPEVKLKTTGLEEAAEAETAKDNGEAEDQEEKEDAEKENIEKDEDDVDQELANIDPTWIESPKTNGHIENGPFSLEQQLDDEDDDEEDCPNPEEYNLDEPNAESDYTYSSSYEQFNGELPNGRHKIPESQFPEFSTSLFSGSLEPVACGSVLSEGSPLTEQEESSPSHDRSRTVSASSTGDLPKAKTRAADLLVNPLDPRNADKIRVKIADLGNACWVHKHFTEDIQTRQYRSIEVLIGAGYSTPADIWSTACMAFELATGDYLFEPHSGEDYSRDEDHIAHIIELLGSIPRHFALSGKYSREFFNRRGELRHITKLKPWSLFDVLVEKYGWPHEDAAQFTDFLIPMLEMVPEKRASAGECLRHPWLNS
kinases (KINOMEscan panel) (Homo sapiens, UniProt Q9BYP7), sequence (Q9BYP7 whole entry): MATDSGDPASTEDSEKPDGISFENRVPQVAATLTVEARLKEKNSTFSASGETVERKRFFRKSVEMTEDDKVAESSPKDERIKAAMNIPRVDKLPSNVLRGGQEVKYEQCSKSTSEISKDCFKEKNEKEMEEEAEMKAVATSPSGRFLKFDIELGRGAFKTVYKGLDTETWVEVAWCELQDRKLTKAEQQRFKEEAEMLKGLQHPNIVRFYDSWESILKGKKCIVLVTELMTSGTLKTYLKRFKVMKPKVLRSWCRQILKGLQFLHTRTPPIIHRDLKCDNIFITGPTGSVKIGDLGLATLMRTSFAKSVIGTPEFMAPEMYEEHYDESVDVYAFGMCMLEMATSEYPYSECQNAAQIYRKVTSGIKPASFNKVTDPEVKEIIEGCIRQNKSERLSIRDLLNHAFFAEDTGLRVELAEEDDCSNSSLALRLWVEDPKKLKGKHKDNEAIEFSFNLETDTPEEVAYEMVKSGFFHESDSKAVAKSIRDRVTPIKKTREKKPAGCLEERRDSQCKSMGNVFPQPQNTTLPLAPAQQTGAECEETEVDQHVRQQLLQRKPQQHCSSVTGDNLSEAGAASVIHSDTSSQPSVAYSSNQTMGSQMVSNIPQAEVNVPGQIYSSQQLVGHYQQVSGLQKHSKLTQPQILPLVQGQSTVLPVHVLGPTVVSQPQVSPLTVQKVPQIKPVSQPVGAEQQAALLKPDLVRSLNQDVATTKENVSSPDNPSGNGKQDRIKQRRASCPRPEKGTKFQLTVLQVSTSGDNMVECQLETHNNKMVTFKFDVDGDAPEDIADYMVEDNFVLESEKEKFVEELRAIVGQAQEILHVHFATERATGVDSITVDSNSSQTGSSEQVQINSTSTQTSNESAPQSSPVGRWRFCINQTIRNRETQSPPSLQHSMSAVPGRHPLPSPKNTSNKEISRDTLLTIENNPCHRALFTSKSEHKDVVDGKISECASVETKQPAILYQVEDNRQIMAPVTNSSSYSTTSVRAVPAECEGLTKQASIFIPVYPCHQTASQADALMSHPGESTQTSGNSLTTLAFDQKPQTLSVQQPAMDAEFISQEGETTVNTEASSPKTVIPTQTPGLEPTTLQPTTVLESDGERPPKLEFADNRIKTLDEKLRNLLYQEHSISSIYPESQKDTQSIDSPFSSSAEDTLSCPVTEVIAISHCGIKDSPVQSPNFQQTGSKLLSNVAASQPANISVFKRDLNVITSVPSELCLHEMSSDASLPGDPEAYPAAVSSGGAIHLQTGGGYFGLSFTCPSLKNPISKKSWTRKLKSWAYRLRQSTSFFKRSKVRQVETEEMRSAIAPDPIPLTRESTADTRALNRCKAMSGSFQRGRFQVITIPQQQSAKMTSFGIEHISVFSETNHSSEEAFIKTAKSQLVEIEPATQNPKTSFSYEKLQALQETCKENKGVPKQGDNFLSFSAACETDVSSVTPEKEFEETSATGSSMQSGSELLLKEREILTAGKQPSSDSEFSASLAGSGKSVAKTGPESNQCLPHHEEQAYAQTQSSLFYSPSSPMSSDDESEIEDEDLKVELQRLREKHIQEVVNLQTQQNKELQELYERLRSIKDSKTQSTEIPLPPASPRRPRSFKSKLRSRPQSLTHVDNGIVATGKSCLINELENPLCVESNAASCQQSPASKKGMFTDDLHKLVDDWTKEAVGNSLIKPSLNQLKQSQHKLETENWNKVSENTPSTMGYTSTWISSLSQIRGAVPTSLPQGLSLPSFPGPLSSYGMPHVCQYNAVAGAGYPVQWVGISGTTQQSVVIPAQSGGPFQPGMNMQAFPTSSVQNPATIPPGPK
kinases (KINOMEscan panel) (Homo sapiens, UniProt P19784), sequence (P19784 whole entry): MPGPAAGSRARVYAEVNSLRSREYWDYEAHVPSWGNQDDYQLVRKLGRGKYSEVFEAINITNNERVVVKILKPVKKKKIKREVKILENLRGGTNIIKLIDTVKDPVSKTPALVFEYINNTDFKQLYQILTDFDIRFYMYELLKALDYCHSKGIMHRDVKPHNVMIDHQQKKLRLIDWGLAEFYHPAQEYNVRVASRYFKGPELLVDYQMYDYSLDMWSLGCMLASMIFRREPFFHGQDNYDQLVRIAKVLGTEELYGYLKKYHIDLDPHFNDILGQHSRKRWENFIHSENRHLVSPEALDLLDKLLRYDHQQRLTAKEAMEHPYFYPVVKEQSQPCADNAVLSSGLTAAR

Cc1cccc(-c2nc(Nc3ccncc3)c3ccccc3n2)n1 [NK215]
KINOMEscan FGR [1]: 31 | KINOMEscan SRPK2 [2]: 54 | KINOMEscan FGFR2 [3]: 7 | KINOMEscan TBK1 [4]: 41 | KINOMEscan GRK2 [5]: 0 | KINOMEscan CSNK2A2 [6]: 0 | KINOMEscan RET [7]: 9 | KINOMEscan MAPKAPK5 [8]: 0 | KINOMEscan CAMKK2 [9]: 7 | KINOMEscan WNK3 [10]: 0 | KINOMEscan MAP3K9 [11]: 11
